The source of these data is PMC10606064, “2-Aminothiazole-Flavonoid Hybrid Derivatives Binding to Tau Protein and Responsible for Antitumor Activity in Glioblastoma” (International Journal of Molecular Sciences, 2023).

The Kd is a measure of binding affinity in units of concentration.

Test [1] addresses T1, Tau protein (full-length human Tau, hTau40) (Homo sapiens, UniProt P10636).
T1 construct: The full-length human Tau (hTau40) was expressed in a transformed E. coli BL21 (DE3) strain; made in house; host or cells: E. coli BL21 (DE3)
Description: Tau intrinsic fluorescence quenching, modified Stern–Volmer binding parameters. The note with it: 5 µM Tau, buffer B pH 6.8, mean ± SD; for Kd: read-out: Equilibrium Binding Constants to Tau, KD. The method in brief:
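Tau intrinsic fluorescence excited at 275 nm, emission recorded 280–500 nm at room temperature; intensity at 303 nm corrected for inner filter effect. Accessible fraction fa and constant K obtained from a modified Stern–Volmer plot of F0/ΔF against 1/[Q] ([…], slope (faK)^−1).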

In the next test the test system is U87 shCTRL cells. Description: Mitochondria network analysis (citrate synthase immunofluorescence), U87 shCTRL. The test is classed as cell-based, human. As to conditions: 5 µM, 24 h (Figure 4 legend: 48 h). The protocol: For indirect immunofluorescence of mitochondria, 10^4 cells were plated on cover glass and incubated for 24 h with compounds. Cells were then fixed in 4% formaldehyde (in PBS pH 7.4) for 20 min at RT, permeabilized with PBS-Triton X-100 0.5% for 10 min at RT. Immunostaining was carried out overnight at 4 °C with a primary anti-citrate synthase antibody (dilution 1:400 in PBS-BSA 3%; SC390693; SantaCruz Biotechnologies, Heidelberg, Germany). The following day, the cells were washed then incubated with anti-mouse secondary antibody (dilution 1:800 in PBS-BSA 3%; A-11029; Invitrogen) and TRITC-phalloidin (dilution 1:2500 in PBS-BSA 3%; P1951; Sigma-Aldrich, Saint-Quentin-Fallavier, France) for 1 h at RT in the dark. For the microtubule network, the same protocol for mitochondria labeling was carried out by replacing with primary anti-α-tubulin antibody (dilution 1:400 in PBS-BSA 1% from a 1 mg/mL solution; monoclonal antibody, clone DM1A, Sigma-Aldrich, Saint-Quentin-Fallavier, France). Next, cells were washed in PBS and cover glasses were mounted with a drop of ProLong® anti-fade solution (Invitrogen). Mitochondria and cytoskeletons were imaged using a confocal laser scanning microscope (CLSM) Leica SP5 with a Leica inverted microscope, equipped with a Plan-Apochromat 63×oil immersion objective (NA = 1.4). Each image was recorded with the CLSM’s spectral mode selecting specific domains of the emission spectrum. The Alexafluor488 and FITC fluorophores were excited at 488 nm with an argon laser, and fluorescence emission was collected between 496 nm and 535 nm. The TRITC fluorophore was excited at 543 nm with a helium–neon laser, and fluorescence was collected between 560 and 620 nm. The public-domain Fiji v1.54f software was used for image analysis.
The analyses of mitochondria and microtubule networks were performed using, respectively, the ‘Mitochondria analyzer’ plugin for Fiji v1.54f software and the method described in our earlier work. Briefly, a series of images were transferred to the software and corrected for background fluorescence intensity contribution. Next, the surface of 50 single cells was measured by considering the cell shape as the boundary of labelling of actin or α-tubulin cytoskeletons (respectively for measurement on mitochondria or microtubules). Then, the mitochondria elongation and mean branch junction per mitochondria parameters, and the surface of the microtubule network, were measured by performing systematically the Otsu method to reduce all gray-level images to binary images. […] Moreover, the ratios of microtubules on cell surfaces were calculated as percentages.

Test [2] concerns U87 shTau cells. Description: Mitochondria network analysis (citrate synthase immunofluorescence), U87 shTau. Type of test: cell-based, human. As to conditions: 5 µM. As to the method:
(§1) For indirect immunofluorescence of mitochondria, 10^4 cells were plated on cover glass and incubated for 24 h with compounds. Cells were then fixed in 4% formaldehyde (in PBS pH 7.4) for 20 min at RT, permeabilized with PBS-Triton X-100 0.5% for 10 min at RT. Immunostaining was carried out overnight at 4 °C with a primary anti-citrate synthase antibody (dilution 1:400 in PBS-BSA 3%; SC390693; SantaCruz Biotechnologies, Heidelberg, Germany). […] Each image was recorded with the CLSM’s spectral mode selecting specific domains of the emission spectrum. The Alexafluor488 and FITC fluorophores were excited at 488 nm with an argon laser, and fluorescence emission was collected between 496 nm and 535 nm. The TRITC fluorophore was excited at 543 nm with a helium–neon laser, and fluorescence was collected between 560 and 620 nm. […]
(§2) The analyses of mitochondria and microtubule networks were performed using, respectively, the ‘Mitochondria analyzer’ plugin for Fiji v1.54f software and the method described in our earlier work. Briefly, a series of images were transferred to the software and corrected for background fluorescence intensity contribution. Next, the surface of 50 single cells was measured by considering the cell shape as the boundary of labelling of actin or α-tubulin cytoskeletons (respectively for measurement on mitochondria or microtubules). […]

Test [3] deals with U87 shTau cells. Description: Microtubule network analysis (alpha-tubulin immunofluorescence), U87 shTau. The test is classed as cell-based, human. The note with it: 0–20 µM, 24 h. As to the method:
as §1, §2

T1 sequence (P10636 1-441 isoform P10636-8): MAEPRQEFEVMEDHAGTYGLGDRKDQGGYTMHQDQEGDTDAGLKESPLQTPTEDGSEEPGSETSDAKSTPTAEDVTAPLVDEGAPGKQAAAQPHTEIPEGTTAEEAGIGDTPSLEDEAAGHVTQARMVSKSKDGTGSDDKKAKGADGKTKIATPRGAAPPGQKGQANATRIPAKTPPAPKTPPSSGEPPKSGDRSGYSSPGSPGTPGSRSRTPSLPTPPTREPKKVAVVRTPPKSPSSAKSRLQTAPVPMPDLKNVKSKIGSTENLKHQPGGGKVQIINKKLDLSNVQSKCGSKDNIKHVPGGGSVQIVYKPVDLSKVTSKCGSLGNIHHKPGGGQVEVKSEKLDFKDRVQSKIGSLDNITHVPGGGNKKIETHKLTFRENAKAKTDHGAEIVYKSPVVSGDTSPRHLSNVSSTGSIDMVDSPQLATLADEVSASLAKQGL

In the case of `Nc1nc2ccc3oc(-c4cccc(Oc5ccccc5)c4)cc(=O)c3c2s1` [Compound 2, 2-amino-7-(3-phenoxyphenyl)-9H-chromeno [6,5-d]thiazol-9-one], in test [1], the “Equilibrium Binding Constants to Tau, fA (Tyr accessible fraction)” value is reported as 0.14 ± 0.10 and the Kd was found to be 4.7 ± 1.8 µM. Moreover, in the test with U87 shCTRL cells, the “change in elongation index of mitochondria” value is −12.5% and the “reduction in the number of branch junctions per mitochondria” value is reported as 1.8 fold. Moreover, in the test on U87 shTau cells [2], the “impact on the mitochondria networks” value is reported as “none of the compounds had an impact”. The “change of microtubule network” value in the test with U87 shTau cells [3] is on record as “no change”.

Consider `Nc1nc2ccc3oc(C(=O)O)cc(=O)c3c2s1` [Compound 5], for which, in test [1], the “Equilibrium Binding Constants to Tau, fA (Tyr accessible fraction)” value is recorded as 0.38 ± 0.01 and the Kd worked out at 6.4 ± 1.5 µM. For the same molecule, in the test on U87 shCTRL cells, the “change in elongation index of mitochondria” value was “No effect” and the “reduction in the number of branch junctions per mitochondria” value is on record as “No effect”. Also, the “impact on the mitochondria networks” value in the test with U87 shTau cells [2] is recorded as “none of the compounds had an impact”. Also, in the test with U87 shTau cells [3], the “change of microtubule network” value is on record as “no change”.
